Laboratory results: patent US4820836A, “Prostacyclin (PGI2) analogues” (Shionogi & Co., Ltd., priority 1986, dated 1989)
Like-named read-outs stand apart in the source and are kept apart here.

Test system: Platelet Agglutination
Assay: In vitro inhibition of platelet agglutination (rabbit platelet rich plasma, aggregometer) induced by arachidonic acid, collagen or ADP
Format: cell-based
Settings: Oryctolagus cuniculus, rabbit PRP
Protocol: The inhibitory activity of the representative compounds of the present invention against platelet agglutination is shown in the following in vitro test.
Mature male rabbits (NIBS-JW, RABITON Institute Inc., weighing 2.2-2.7 kg) were used. Under sodium pentobarbital anesthesia (Somnopentyl, Pitman Movre, about 25 mg/Kg, i.v.), blood was with from the carotid artery by cannulation into centrifuge tubes containg 1/10 vol of a 3.8% sodium citrate solution. (The total volume in each tube was adjusted to 8 ml.) The blood in a tube was gentyl mixed by turing and centrifuged for 10 minutes at 210 g at 20° C. to give platelet rich plasma (PRP). The remaining blood was further centrifuged at 3,000 rpm (about 1,900 g) for 10 minutes at 20° C. to give platelet-poor plasma (PPP).
PRP was diluted with PPP to prepare a blood sample whose platelet number was 50-55×10^4 /μl. The sample was then subjected to a platelet agglutination test.
The platelet agglutination was examined by the method of Bron [Born, G.V.R., Nature, 194, 927-929 (1962)], using a Type AUTO RAM-61 aggregometer, (Rika Denki Co., Ltd., Tokyo). A volume of 400 μl of PRP, whose platelet number was adjusted to 50-55×10^4 /μl, was placed in a measuring cuvette and set in the aggregometer. PRP was warmed at 37° C. for 1 minute with stirring at 1,200 rpm, and then a solution of the test compound [dimethylsulfoxide solution (2 μl) of the compound+saline (48 μl); in case of prostaglandin I2 (PGI2) and prostaglandin E1 (PG E1), a solution of each compound (50 μl) in Tris buffer] was added thereto. Exactly 2 minutes later, 50 μl of ADP Pharmacia, U.S.A., (final concentration: 30 μM) or collagen (final muchen, muchen, concentration: 20 μg/ml) or arachidonic acid (sodium salt, Sigma, final concentration (500 μM) was added as a platelet agglutinating agent, and the change in light transmission caused by platelet agglutination was recorded.
The light transmissions of PRP and PPP were taken as 0% and 100% agglutination, respectively, and the maximum light transmission after addition of an agglutinating agent was made to the maxiumum agglutination. The inhibition rate of the platelet agglutination was expressed as the percentage of the maximum agglutination by a test compound to that by a control (Vehicle added group).
Prostaglandin (PG) I2 and E1 are served as standard substances.

[1] = ADP, final 30 μM, 37° C., compound in dimethylsulfoxide+saline, read-out: Inhibition Activity against Platelet Agglutination [50% Inhibition Concentration (μM)], ADP
[2] = arachidonic acid, final 500 μM, 37° C., compound in dimethylsulfoxide+saline, read-out: Inhibition Activity against Platelet Agglutination [50% Inhibition Concentration (μM)], Arachidonic acid
[3] = collagen, final 20 μg/ml, 37° C., compound in dimethylsulfoxide+saline, read-out: Inhibition Activity against Platelet Agglutination [50% Inhibition Concentration (μM)], Collagen

SMILES	IC50 [1]	IC50 [2]	IC50 [3]	also measured
CCCCC[C@H](O)/C=C/[C@H]1[C@H](O)C[C@]2(C)N=C(SCCCC(=O)OCC)C[C@H]12 [17(S)e]	1.6 µM	4.4 µM	0.6 µM	–
CCCCC[C@H](O)/C=C/[C@H]1[C@H](O)C[C@]2(CC)N=C(SCCCC(=O)OCC)C[C@H]12 [17(S)d]	18 µM	160 µM	9 µM	–
CC#C[C@]12C[C@@H](O)[C@H](/C=C/[C@@H](O)CCCCC)[C@H]1CC(SCCCC(=O)O)=N2 [19(S)h, sodium 4-[7-hydroxy-6-[(3S)-3-hydroxy-1-octenyl]-1-(1-propynyl)-2-azabicyclo[3.3.0]oct-2-en-3-yl]thiobutanoate]	0.0042 µM	0.0035 µM	0.0028 µM	–
C=C[C@]12C[C@@H](O)[C@H](/C=C/[C@@H](O)C(C)CC#CC)[C@H]1CC(SCCCC(=O)OCC)=N2 (stereo partly drawn) [17(S)l-d]	0.13 µM	0.36 µM	0.048 µM	–
CCCCC[C@H](O)/C=C/[C@H]1[C@H](O)C[C@]2(C#Cc3ccccc3)N=C(SCCCC(=O)OCC)C[C@H]12 [17(S)i]	5 µM	44 µM	0.45 µM	–
C#C[C@]12C[C@@H](O)[C@H](/C=C/[C@@H](O)C3CCCCC3)[C@H]1CC(SCCCC(=O)OCC)=N2 [17(S)g-e]	0.033 µM	0.146 µM	0.0094 µM	–
CCCCC[C@H](O)/C=C/[C@@H]1[C@H]2CC(SCCCC(=O)OC)=N[C@H]2C[C@H]1O [Compound 18c, reference compound]	0.074 µM	0.16 µM	0.062 µM	–
CCCCC[C@H](O)/C=C/[C@H]1[C@H](O)CC(=O)[C@@H]1CCCCCCC(=O)O [PGE1, prostaglandin E1, reference compound]	–	–	–	IC50 (pH 7.4, ADP, final 30 μM, Tris buffer, pH7.4, read-out: Inhibition Activity against Platelet Agglutination [50% Inhibition Concentration (μM)], ADP): 0.066 µM; IC50 (pH 7.4, arachidonic acid, final 500 μM, Tris buffer, pH7.4, read-out: Inhibition Activity against Platelet Agglutination [50% Inhibition Concentration (μM)], Arachidonic acid): 0.25 µM; IC50 (pH 7.4, collagen, final 20 μg/ml, Tris buffer, pH7.4, read-out: Inhibition Activity against Platelet Agglutination [50% Inhibition Concentration (μM)], Collagen): 0.052 µM
CCCCC[C@H](O)/C=C/[C@H]1[C@H](O)C[C@]2(Sc3ccccc3)N=C(SCCCC(=O)OCC)C[C@H]12 [17(S)a, ethyl 4-[7-hydroxy-6-[(3S)-3-hydroxy-1-octenyl]-1-phenylthio-2-azabicyclo[3.3.0]oct-2-en-3-yl]thiobutanoate]	16 µM	21 µM	8 µM	–
C=C[C@]12C[C@@H](O)[C@H](/C=C/[C@H](O)C3CCCC3)[C@H]1CC(SCCCC(=O)OCC)=N2 [17(R)l-f]	142 µM	443 µM	54 µM	–
C#C[C@]12C[C@@H](O)[C@H](/C=C/[C@H](O)C3CCCCC3)[C@H]1CC(SCCCC(=O)OCC)=N2 [17(R)g-e]	13.4 µM	60.6 µM	3 µM	–
C=C[C@]12C[C@@H](O)[C@H](/C=C/[C@@H](O)C3CCCC3)[C@H]1CC(SCCCC(=O)OCC)=N2 [17(S)l-f]	0.3 µM	1.2 µM	0.12 µM	–
CCCCC[C@H](O)/C=C/[C@H]1[C@H](O)C[C@]2(OC)N=C(SCCCC(=O)OCC)C[C@H]12 [17(S)b]	15 µM	16 µM	7 µM	–
C=C[C@]12C[C@@H](O)[C@H](/C=C/[C@H](O)C(C)CC#CC)[C@H]1CC(SCCCC(=O)OCC)=N2 (stereo partly drawn) [17(R)l-d]	55 µM	118 µM	23 µM	–
C=C[C@]12C[C@@H](O)[C@H](/C=C/[C@@H](O)CCCCC)[C@H]1CC(SCCCC(=O)OCC)=N2 [17(S)l, ethyl 4-[1-ethenyl-7-hydroxy-6[(3S)-3-hydroxy-1-octenyl]-2-azabicyclo[3.3.0]oct-2-en-3-yl]thiobutanoate]	0.42 µM	0.7 µM	0.1 µM	–
CCCCC[C@H](O)/C=C/[C@@H]1[C@H]2C/C(=C/CCCC(=O)O)O[C@H]2C[C@H]1O [PGI2, prostaglandin I2]	–	–	–	IC50 (pH 8, ADP, final 30 μM, Tris buffer, pH8.0, read-out: Inhibition Activity against Platelet Agglutination [50% Inhibition Concentration (μM)], ADP): 0.014 µM; IC50 (pH 8, arachidonic acid, final 500 μM, Tris buffer, pH8.0, read-out: Inhibition Activity against Platelet Agglutination [50% Inhibition Concentration (μM)], Arachidonic acid): 0.054 µM; IC50 (pH 8, collagen, final 20 μg/ml, Tris buffer, pH8.0, read-out: Inhibition Activity against Platelet Agglutination [50% Inhibition Concentration (μM)], Collagen): 0.019 µM; IC50 (pH 10, ADP, final 30 μM, Tris buffer, pH10.0, read-out: Inhibition Activity against Platelet Agglutination [50% Inhibition Concentration (μM)], ADP): 0.016 µM; IC50 (pH 10, arachidonic acid, final 500 μM, Tris buffer, pH10.0, read-out: Inhibition Activity against Platelet Agglutination [50% Inhibition Concentration (μM)], Arachidonic acid): 0.09 µM; IC50 (pH 10, collagen, final 20 μg/ml, Tris buffer, pH10.0, read-out: Inhibition Activity against Platelet Agglutination [50% Inhibition Concentration (μM)], Collagen): 0.02 µM

Further lines, with some results ahead:

IC50 [1]	IC50 [2]	IC50 [3]	SMILES	also measured
0.0049 µM	0.0093 µM	0.0093 µM	C#C[C@]12C[C@@H](O)[C@H](/C=C/[C@@H](O)CCCCC)[C@H]1CC(SCCCC(=O)O)=N2 [19(S)g, Sodium 4-[1-ethynyl-7-hydroxy-6-[(3S)-3-hydroxy-1-octenyl]-2-azabicyclo[3.3.0]oct-2-en-3-yl]thiobutanoate]	–
2.06 µM	1.55 µM	0.54 µM	C#C[C@]12C[C@@H](O)[C@H](/C=C/[C@H](O)C(C)CCCC)[C@H]1CC(SCCCC(=O)OCC)=N2 (stereo partly drawn) [17(R)g-b]	–
0.0066 µM	0.012 µM	0.0013 µM	C#C[C@]12C[C@@H](O)[C@H](/C=C/[C@@H](O)C(C)CCCC)[C@H]1CC(SCCCC(=O)OCC)=N2 (stereo partly drawn) [17(S)g-b]	–
0.014 µM	0.018 µM	0.0042 µM	C#C[C@]12C[C@@H](O)[C@H](/C=C/[C@@H](O)C(C)CC#CC)[C@H]1CC(SCCCC(=O)OCC)=N2 (stereo partly drawn) [17(S)g-d]	–
0.27 µM	0.74 µM	0.053 µM	C#CC#C[C@]12C[C@@H](O)[C@H](/C=C/[C@@H](O)CCCCC)[C@H]1CC(SCCCC(=O)OCC)=N2 [17(S)k, ethyl 4-[1-(1,3-butadiynyl)-7-hydroxy-6-[(3S)-3-hydroxy-1-octenyl]-2-azabicycl[3.3.0]oct-2-en-3-yl]thiobutanoate]	–
0.006 µM	0.01 µM	0.0013 µM	CC#C[C@]12C[C@@H](O)[C@H](/C=C/[C@@H](O)CCCCC)[C@H]1CC(SCCCC(=O)OCC)=N2 [17(S)h]	–
0.167 µM	0.332 µM	0.044 µM	CCCCC[C@H](O)/C=C/[C@H]1[C@H](O)C[C@]2(C#N)N=C(SCCCC(=O)OCC)C[C@H]12 [17(S)m, ethyl 4-[1-cyano-7-hydroxy-6-[(3S)-3-hydroxy-1-octenyl]-2-azabicyclo[3.3.0]oct-2-en-3-yl]thiobutanoate]	–
0.0241 µM	0.081 µM	0.011 µM	C#C[C@]12C[C@@H](O)[C@H](/C=C/[C@@H](O)CCCCC)[C@H]1CC(SCCCC(=O)OC)=N2 [18(S)g, methyl 4-[1-ethynyl-7-hydroxy-6-[(3S)-3-hydroxy-1-octenyl]-2-azabicyclo[3.3.0]oct-2-en-3-yl]thiobutanoate]	–
0.011 µM	0.02 µM	0.006 µM	C#C[C@]12C[C@@H](O)[C@H](/C=C/[C@@H](O)CCCCC)[C@H]1CC(SCCCC(=O)OCC)=N2 [17(S)g, ethyl 4-[1-ethynyl-7-hydroxy-6-[(3S)-3-hydroxy-1-octenyl]-2-azabicyclo[3.3.0]oct-2-en-3-yl]thiobutanoate]	–
8.43 µM	11.7 µM	4 µM	C#C[C@]12C[C@@H](O)[C@H](/C=C/[C@H](O)C(C)CC#CC)[C@H]1CC(SCCCC(=O)OCC)=N2 (stereo partly drawn) [17(R)g-d]	–
